From publication PMC7584160 (Environmental Health Perspectives, 2020) come the findings set out here.

The subject of assay [1] is GH3 cells. Briefly: GH3 cell proliferation assay in the presence of 10 nM T3. The class given is cell-based, rat.
Assay [2] deals with GH3 cells. Briefly: GH3 cell proliferation assay (individual exposure, with or without amiodarone). The class given is cell-based, rat. The conditions noted are these: 96 h; for LOEC for GH3 cell proliferation: individual exposure.
The next assay has as its target T1, human TRβ-LBD (Homo sapiens, UniProt P10828).
T1 construct: purchased Zhongding Biotechnology Co. Ltd
T1 sequence (P10828 217-461 limits assumed): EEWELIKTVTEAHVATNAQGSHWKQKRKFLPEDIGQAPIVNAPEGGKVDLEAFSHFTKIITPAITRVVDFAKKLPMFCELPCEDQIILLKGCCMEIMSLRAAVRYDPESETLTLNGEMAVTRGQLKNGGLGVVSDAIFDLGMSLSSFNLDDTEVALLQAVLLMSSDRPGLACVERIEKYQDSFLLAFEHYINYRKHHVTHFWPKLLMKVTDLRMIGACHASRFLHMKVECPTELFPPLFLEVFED
Briefly: TRβ-LBD fluorescence polarization competitive binding assay (F-T3 probe).

Assay [3] addresses T2, human transthyretin (TTR) (Homo sapiens, UniProt P02766).
T2 construct: purchased Calbiochem 529577
Briefly: TTR fluorescence polarization competitive binding assay (F-T4 probe). Conditions: for TTR RBP (relative binding potency): IC50 of TBBPA divided by that of competitor, TBBPA set as 1.00. (Fluorescence polarisation rises when a labelled molecule tumbles more slowly, as on binding a larger partner.)

The target in the next assay is T3, human TRα-LBD (Homo sapiens, UniProt P10827).
T3 sequence (P10827 163-410 isoform P10827-2 limits assumed): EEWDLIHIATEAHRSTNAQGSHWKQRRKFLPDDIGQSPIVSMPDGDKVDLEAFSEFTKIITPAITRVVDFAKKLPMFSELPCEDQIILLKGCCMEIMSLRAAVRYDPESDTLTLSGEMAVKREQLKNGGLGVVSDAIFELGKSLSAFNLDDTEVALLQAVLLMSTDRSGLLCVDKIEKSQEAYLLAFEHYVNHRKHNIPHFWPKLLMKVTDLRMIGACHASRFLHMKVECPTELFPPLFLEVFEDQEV
Briefly: TRα-LBD fluorescence polarization competitive binding assay (F-T3 probe).

Assay [4] addresses T4, human thyroxine-binding globulin (TBG) (Homo sapiens, UniProt P05543).
T4 construct: purchased Calbiochem 612075
T4 sequence (P05543 21-415): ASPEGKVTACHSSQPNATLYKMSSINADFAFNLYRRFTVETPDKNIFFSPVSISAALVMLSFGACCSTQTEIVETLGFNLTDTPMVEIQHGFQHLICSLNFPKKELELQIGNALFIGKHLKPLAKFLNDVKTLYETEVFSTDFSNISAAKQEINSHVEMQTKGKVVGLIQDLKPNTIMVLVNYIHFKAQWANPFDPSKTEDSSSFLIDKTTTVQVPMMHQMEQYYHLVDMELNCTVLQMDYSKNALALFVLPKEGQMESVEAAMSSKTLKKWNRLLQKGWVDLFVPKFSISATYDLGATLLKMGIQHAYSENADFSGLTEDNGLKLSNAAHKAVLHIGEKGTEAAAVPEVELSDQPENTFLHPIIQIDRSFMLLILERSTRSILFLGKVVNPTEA
Briefly: TBG fluorescence polarization competitive binding assay (F-T4 probe). Conditions: 100 nM TBG, 50 nM F-T4; up to 50 μM competitor.

Where [5] appears, read: IC20 of TBBPA divided by that of competitor, TBBPA set as 1.00.
Setting [6] is: co-exposed with 10 nM T3, mass concentration.
[7] abbreviates: […] nM TRβ-LBD, 50 nM F-T3, pH 7.5, 25°C, linear interpolation, read-out: TRβ-LBD IC20.
The mark [8] stands for this setting: […] nM TTR, 50 nM F-T4, pH 7.5, 25°C, linear interpolation, read-out: TTR IC50 (converted).
Where [9] appears, read: […] nM TRα-LBD, 50 nM F-T3, pH 7.5, 25°C, linear interpolation, read-out: TRα-LBD IC20.

Like-named read-outs stand apart in the source and are kept apart here.

Regarding `CC(C)(c1cc(Br)c(OCC(Br)CBr)c(Br)c1)c1cc(Br)c(OCC(Br)CBr)c(Br)c1` (centres unmarked) [TBBPA-BDBPE, TBBPA-bis(2,3-dibromopropyl ether)], the “Effect on T3-induced GH3 cell proliferation” value in the assay on GH3 cells [1] (co-exposed with 10 nM T3) is given as “no effect”.

As to `CC(C)(c1cc(Br)c(O)c(Br)c1)c1cc(Br)c(OCC(Br)CBr)c(Br)c1` (centres unmarked) [TBBPA-MDBPE, TBBPA-mono(2,3-dibromopropyl ether)], the figures for the “LOEC for GH3 cell proliferation” value in the assay with GH3 cells [2] and in the assay on GH3 cells [2] (mass concentration) were 0.3 µM and 220 µg/L, respectively. For the same molecule, the “TRβ-LBD RBP” value on human TRβ-LBD (setting [5]) is given as 0.25. Besides, the 20% effect concentration (IC20) (in general, the concentration needed for an effect of 20%) came to 20000 nM on human TRβ-LBD (pH 7.5, read-out: TRβ-LBD IC20); 14.7 µg/mL at human TRβ-LBD (read-out: TRβ-LBD IC20); 50000 nM at human TRα-LBD (pH 7.5, read-out: TRα-LBD IC20); 36.8 µg/mL on human TRα-LBD (read-out: TRα-LBD IC20). Besides, in assay [3], the “TTR RBP (relative binding potency)” value is 0.20. Also, the half-inhibitory concentration (IC50) (usually the concentration that gives 50% inhibition) in assay [3] (TTR IC50, […] nM TTR, 50 nM F-T4, pH 7.5, 25°C, linear interpolation) was 1000 nM; in assay [3] (TTR IC50, mass concentration given beside the μM value) it was 990 nM. The “TTR-binding potency, fold lower than natural ligand T4” value in assay [3] (compared with T4) is recorded as about 5 fold. For the same molecule, on human TRα-LBD (setting [5]), the “TRα-LBD RBP” value was 0.03. In addition, the “LOEC for enhancing T3-induced GH3 cell proliferation” value with GH3 cells [1] (co-exposed with 10 nM T3) stood at 0.3 µM; in the assay with GH3 cells [1] (setting [6]), 220 µg/L.

For `C=CCOc1c(Br)cc(C(C)(C)c2cc(Br)c(OCC=C)c(Br)c2)cc1Br` [TBBPA-BAE, TBBPA-bis(allyl ether)], the “Inhibition of T3-induced GH3 cell proliferation effect” value in the assay on GH3 cells [1] (co-exposed with 10 nM T3) is about 60%.

Take `CC(C)(c1cc(Br)c(O)c(Br)c1)c1cc(Br)c(OCC2CO2)c(Br)c1` (centres unmarked) [TBBPA-MGE, TBBPA-mono(glycidyl ether)]: the entries for the “LOEC for GH3 cell proliferation” value in the assay on GH3 cells [2] and in the assay with GH3 cells [2] (mass concentration) were 2.5 µM and 1400 µg/L, respectively. Further, the “TRβ-LBD RBP” value at human TRβ-LBD came to 0.83. The IC20 on human TRβ-LBD (setting [7]) stood at 6000 nM; at human TRα-LBD (setting [9]) it was 8000 nM. In assay [3], the “TTR RBP (relative binding potency)” value is recorded as 0.40. In addition, the half-maximal inhibitory concentration (IC50) in assay [3] (setting [8]) was 500 nM. Moreover, the “TTR-binding potency, fold lower than natural ligand T4” value in assay [3] (compared with T4) is on record as “approximately 2 fold”. At human TRα-LBD, the “TRα-LBD RBP” value is 0.18. In addition, the “LOEC for enhancing T3-induced GH3 cell proliferation” value in the assay on GH3 cells [1] (co-exposed with 10 nM T3) was 1.2 µM; with GH3 cells [1] (setting [6]) it was 700 µg/L.

For the molecule `CC(C)(c1cc(Br)c(O)c(Br)c1)c1cc(Br)c(O)c(Br)c1` [TBBPA, Tetrabromobisphenol A, reference compound], the “Highest activity of GH3 proliferation induction” value with GH3 cells [2] (individual exposure 0.3-10 μM, relative to 0.1% DMSO control) was 137%. The “LOEC for GH3 cell proliferation” value with GH3 cells [2] came to 2.5 µM. Moreover, at human TRβ-LBD (setting [5]), the “TRβ-LBD RBP” value was found to be 1.00. The 20% effect concentration (IC20) at human TRβ-LBD (setting [7]) came to 5000 nM; on human TRα-LBD (setting [9]), 1500 nM. Moreover, in assay [4], the “Binding to TBG” value is given as “did not bind”. In addition, the “TRα-LBD RBP” value at human TRα-LBD (setting [5]) came to 1.00. Also, the “LOEC for enhancing T3-induced GH3 cell proliferation” value in the assay with GH3 cells [1] (co-exposed with 10 nM T3) amounted to 2.5 µM. Moreover, in the assay on GH3 cells [1] (co-exposed with 10 nM T3, 96 h), the “Enhancement of T3-induced GH3 cell proliferation effect” value amounted to 20%.

Turning to `C=CCOc1c(Br)cc(C(C)(C)c2cc(Br)c(O)c(Br)c2)cc1Br` [TBBPA-MAE, TBBPA-mono(allyl ether)], at human TRβ-LBD (setting [5]), the “TRβ-LBD RBP” value turned out to be 1.25. For the same molecule, the concentration for an effect of 20% (IC20) on human TRβ-LBD (setting [7]) was 4000 nM; at human TRβ-LBD (mass concentration given beside the μM value, read-out: TRβ-LBD IC20), 2.3 µg/mL; on human TRα-LBD (setting [9]), 6000 nM; on human TRα-LBD (mass concentration given beside the μM value, read-out: TRα-LBD IC20) it was 3.4 µg/mL. Further, in assay [3], the “TTR RBP (relative binding potency)” value was found to be 2.00. For the same molecule, the IC50 in assay [3] (setting [8]) was 100 nM; in assay [3] (mass concentration given beside the μM value, read-out: TTR IC50 (converted)), 97.6 nM. In assay [3] (compared with T4), the “TTR-binding potency, fold higher than T4” value worked out at 2 fold. Moreover, the “TTR-binding potency, fold greater than TBBPA” value in assay [3] (compared with TBBPA) is reported as 2 fold. Besides, the “TRα-LBD RBP” value at human TRα-LBD (setting [5]) amounted to 0.25.

`CC(C)(c1cc(Br)c(OCC2CO2)c(Br)c1)c1cc(Br)c(OCC2CO2)c(Br)c1` (centres unmarked) [TBBPA-BGE, TBBPA-bis(glycidyl ether)]: on human TRβ-LBD (setting [5]), the “TRβ-LBD RBP” value came out at 0.20. Besides, on human TRβ-LBD (setting [7]), the IC20 was found to be 25000 nM. The “Inhibition of T3-induced GH3 cell proliferation effect” value in the assay on GH3 cells [1] (co-exposed with 10 nM T3) was “approximately 80%”.
